Source: patent US7521397B2, “Disubstituted pyrazolyl carboxanilides” (Bayer CropScience AG, priority 2002, dated 2009)
Read-outs that look alike come from different tables or passages of the source.

What was measured:
[1] = logP determination by HPLC on reverse-phase column (EEC Directive 79/831 Annex V.A8); assay type: physicochemical; conditions: reverse-phase C18 HPLC column
Description: The logP values given in the tables and Preparation Examples above are determined in accordance with EEC Directive 79/831 Annex V.A8 by HPLC (High Performance Liquid Chromatography) on a reverse-phase column (C 18). Temperature: 43° C. In the acidic range, the determination is carried out at pH 2.3 using the mobile phases 0.1% aqueous phosphoric acid and acetonitrile; linear gradient from 10% acetonitrile to 90% acetonitrile. Calibration is carried out using unbranched alkan-2-ones (of 3 to 16 carbon atoms) with known logP values (determination of the logP values by the retention times using linear interpolation between two successive alkanones).

Sphaerotheca fuliginea = experiment: Sphaerotheca test (cucumber)/protective; assay type: in vivo; conditions: Podosphaera fuliginea, topical, 168 h, protective spray, application rate 100 g/ha, evaluation 7 days after inoculation, read-out: Efficacy in %
Description: (§1) [table] To produce a suitable preparation of active compound, 1 part by weight of active compound is mixed with the stated amounts of solvent and emulsifier, and the concentrate is diluted with water to the desired concentration. To test for protective activity, young plants are sprayed with the preparation of active compound at the stated application rate. After the spray coating has dried on, the plants are inoculated with an aqueous spore suspension of the Sphaerotheca fuliginea. The plants are then placed in a greenhouse at about 23° C. and a relative atmospheric humidity of about 70%. Evaluation is carried out 7 days after the inoculation. 0% means an efficacy which corresponds to that of the control, whereas an efficacy of 100% means that no infection is observed.

Podosphaera leucotricha = experiment: Podosphaera test (apple)/protective; assay type: in vivo; conditions: topical, 240 h, protective spray, application rate 100 g/ha, evaluation 10 days after inoculation, read-out: Efficacy in %
Description: as §1, with “of the apple mildew pathogen Podosphaera leucotricha. The plants” for “of the Sphaerotheca fuliginea. The plants”, “carried out 10 days after” for “carried out 7 days after”

Alternaria solani = experiment: Alternaria test (tomato)/protective; assay type: in vivo; conditions: protective spray, application rate 750 g/ha, evaluation 7 days after inoculation
Description: [table] To produce a suitable preparation of active compound, 1 part by weight of active compound is mixed with the stated amounts of solvent and emulsifier, and the concentrated is diluted with water to the desired concentration. To test for protective activity, young tomato plants are sprayed with the preparation of active compound at the stated application rate. 1 day after the treatment, the plants are inoculated with a spore suspension of Alternaria solani and are then kept at 100% relative atmospheric humidity and 20° C. for 24 h. The plants are then kept at 96% relative atmospheric humidity and a temperature of 20° C. Evaluation is carried out 7 days after the inoculation. 0% means an efficacy which corresponds to that of the control, whereas an efficacy of 100% means that no infection is observed.

Venturia inaequalis = experiment: Venturia test (apple)/protective; assay type: in vivo; conditions: topical, 240 h, protective spray, application rate 100 g/ha, evaluation 10 days after inoculation, read-out: Efficacy in %
Description: as §1, with “conidia” for “spore”, “apple scab pathogen Venturia inaequalis and then remain in an incubation cabin at about 20° C. and 100% relative atmospheric humidity for 1 day.” for “Sphaerotheca fuliginea.”, “21°” for “23°”, “90%.” for “70%.”, “10” for “7”

[2] = pH 2.3, 43° C., preparation examples, read-out: logP (pH 2.3)
[3] = Table 1, 43° C., acidic range pH 2.3, read-out: logP

Row | SMILES | chromatographic logP [1, 2] | pest or weed control at 100 g/ha (Sphaerotheca fuliginea) | pest or weed control at 100 g/ha (Podosphaera leucotricha) | Efficacy in % (Alternaria solani) | pest or weed control at 100 g/ha (Venturia inaequalis) | chromatographic logP [1, 3]
1 | Cn1cc(C(=O)Nc2c(F)cccc2-c2ccc(Cl)c(Cl)c2)c(C(F)(F)F)n1 [Example 1, N-(3′,4′-dichloro-3-fluoro-1,1′-biphenyl-2-yl)-1-methyl-3-(trifluoromethyl)-1H-pyrazole-4-carboxamide] | 3.1 | 100% | 100% | 100% | 100% | –
2 | Cn1cc(C(=O)Nc2c(F)cccc2-c2ccc(F)c(Cl)c2)c(C(F)(F)F)n1 [Example 2] | 3.04 | – | – | 100% | – | –
3 | Cn1cc(C(=O)Nc2cc(F)ccc2-c2ccc(Cl)c(Cl)c2)c(C(F)(F)F)n1 [Example 3] | – | 100% | 100% | 100% | 100% | 3.75
4 | Cn1cc(C(=O)Nc2cc(F)ccc2-c2ccc(F)c(Cl)c2)c(C(F)(F)F)n1 [Example 4] | – | 99% | 100% | 100% | 100% | 3.51
5 | Cn1cc(C(=O)Nc2ccc(F)cc2-c2ccc(Cl)c(Cl)c2)c(C(F)(F)F)n1 [Example 5] | – | 100% | 100% | 100% | 100% | 3.57
6 | Cn1cc(C(=O)Nc2ccc(F)cc2-c2ccc(F)c(Cl)c2)c(C(F)(F)F)n1 [Example 6] | – | 98% | 100% | 100% | 100% | 3.26
7 | Cn1cc(C(=O)Nc2c(F)cccc2-c2ccc(Cl)c(Cl)c2)c(C(F)F)n1 [Example 7] | – | 100% | 100% | – | 100% | 3.1
8 | Cn1cc(C(=O)Nc2cc(F)ccc2-c2ccc(Cl)c(Cl)c2)c(C(F)F)n1 [Example 9] | – | 94% | 83% | – | 99% | 3.55
9 | Cn1cc(C(=O)Nc2cc(F)ccc2-c2ccc(F)c(Cl)c2)c(C(F)F)n1 [Example 10] | – | 100% | 100% | – | 100% | 3.29
10 | Cn1cc(C(=O)Nc2ccc(F)cc2-c2ccc(Cl)c(Cl)c2)c(C(F)F)n1 [Example 11] | – | 100% | 100% | – | 100% | 3.33
11 | Cn1cc(C(=O)Nc2ccc(F)cc2-c2ccc(F)c(Cl)c2)c(C(F)F)n1 [Example 12] | – | 100% | 100% | – | 100% | 3.07
12 | Nc1c(F)cccc1-c1ccc(Cl)c(Cl)c1 [Example (III-1), 3′,4′-dichloro-3-fluoro-1,1′-biphenyl-2-amine] | 4.09 | – | – | – | – | –
13 | Nc1ccc(F)cc1-c1ccc(Cl)c(Cl)c1 [Example (III-2), 3′,4′-Dichloro-5-fluoro-1,1′-biphenyl-2-amine] | 3.62 | – | – | – | – | –
14 | Cn1cc(C(=O)Nc2c(F)cccc2Br)c(C(F)(F)F)n1 [Example (IV-1)] | 2.12 | – | – | – | – | –
